In US10710994B2, “Oxadiazole transient receptor potential channel inhibitors” (Genentech, Inc., priority 2018, dated 2020):
pIC50: −log10 of the molar value. Like-named read-outs stand apart in the source and are kept apart here.

Molecular target: human TRPA1 channel (Homo sapiens (Human), UniProt O75762)
Test: hTRPA1 CHO Ca2+ FLIPR Tetra assay: block of cinnamaldehyde induced calcium influx
Type: cell-based
Conditions: CHO cells expressing TRPA1, Hill coefficient fixed to 1.5
Summary of the method: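 TRPA1-expressing CHO cells loaded with calcium indicator dye (1 h 37° C, then 15 min room temperature) in HBSS/20 mM HEPES pH 7.4/0.02% BSA. IC50 from fits with fixed Hill coefficient.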

[1] = read-out: hTRPA1 IC50 10 min, 10 minutes incubation with compound before cinnamaldehyde (about EC80)
[2] = read-out: hTRPA1 IC50 90 min, 90 minutes incubation with compound before cinnamaldehyde (about EC80)

Chain of human TRPA1 channel (O75762 whole entry): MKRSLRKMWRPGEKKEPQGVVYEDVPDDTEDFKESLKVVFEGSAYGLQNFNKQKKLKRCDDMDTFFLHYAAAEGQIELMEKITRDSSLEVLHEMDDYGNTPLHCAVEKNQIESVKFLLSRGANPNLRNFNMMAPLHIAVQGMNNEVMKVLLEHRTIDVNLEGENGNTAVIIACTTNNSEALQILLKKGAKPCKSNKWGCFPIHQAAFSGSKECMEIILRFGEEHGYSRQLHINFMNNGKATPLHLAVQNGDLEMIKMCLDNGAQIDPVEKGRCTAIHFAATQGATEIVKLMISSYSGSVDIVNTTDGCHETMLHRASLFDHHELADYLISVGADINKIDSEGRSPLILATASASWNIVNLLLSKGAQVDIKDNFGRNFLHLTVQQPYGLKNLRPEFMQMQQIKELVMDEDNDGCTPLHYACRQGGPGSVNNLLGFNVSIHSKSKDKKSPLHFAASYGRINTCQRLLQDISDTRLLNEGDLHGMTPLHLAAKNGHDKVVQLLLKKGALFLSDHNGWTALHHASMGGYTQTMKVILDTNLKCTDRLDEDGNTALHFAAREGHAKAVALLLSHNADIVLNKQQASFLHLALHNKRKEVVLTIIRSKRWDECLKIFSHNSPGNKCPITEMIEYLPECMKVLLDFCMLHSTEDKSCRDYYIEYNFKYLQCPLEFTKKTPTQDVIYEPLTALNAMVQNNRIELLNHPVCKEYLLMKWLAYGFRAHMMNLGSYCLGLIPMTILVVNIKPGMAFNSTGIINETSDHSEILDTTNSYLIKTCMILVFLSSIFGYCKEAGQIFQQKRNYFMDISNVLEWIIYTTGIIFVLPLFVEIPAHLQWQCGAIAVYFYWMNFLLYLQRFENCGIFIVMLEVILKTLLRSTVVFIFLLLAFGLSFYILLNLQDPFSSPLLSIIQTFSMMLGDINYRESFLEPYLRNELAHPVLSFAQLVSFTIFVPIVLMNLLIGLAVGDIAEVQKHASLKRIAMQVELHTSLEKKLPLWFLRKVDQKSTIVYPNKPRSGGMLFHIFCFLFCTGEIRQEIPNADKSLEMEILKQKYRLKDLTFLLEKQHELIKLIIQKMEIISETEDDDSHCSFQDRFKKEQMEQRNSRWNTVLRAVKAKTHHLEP

Compound | pIC50 [1] | pIC50 [2] | pIC50 (hTRPA1 IC50 10 min, 10 minutes incubation with compound before cinnamaldehyde (about EC80)) | pIC50 (hTRPA1 IC50 90 min, 90 minutes incubation with compound before cinnamaldehyde (about EC80))
Nc1nc2ncccc2c(=O)n1Cc1nc([C@@H]2CO[C@@H](c3ccc(F)cc3)C2)no1 [Example 89, 2-amino-3-((3-((3R,5R)-5-(4-fluorophenyl)tetrahydrofuran-3-yl)-1,2,4-oxadiazol-5-yl)methyl) pyrido[2,3-d]pyrimidin-4(3H)-one] | 7.73 | 8.54 | – | –
Cc1ccnc2cnn(Cc3nc([C@@H]4CO[C@@H](c5ccc(F)cc5)C4)no3)c(=O)c12 [Example 104, 6-[[3-[(3R,5R)-5-(4-fluorophenyl)tetrahydro-furan-3-yl]-1,2,4-oxadiazol-5-yl]methyl]-4-methyl-pyrido[2,3-d] pyridazin-5-one] | 8.14 | 8.17 | – | –
[2H]c1nc2nc(C)n(Cc3nc([C@@H]4CO[C@@H](c5ccc(Cl)cc5)C4)no3)c(=O)c2n1C [Example 110, 1-((3-((3R,5R)-5-(4-chlorophenyl)tetrahydro-furan-3-yl)-1,2,4-oxadiazol-5-yl)methyl)-2,7-dimethyl-1,7-dihydro-6H-purin-6-one-8-d] | – | – | 8.03 | 8.41
Cc1nc2nc(Cl)n(C)c2c(=O)n1Cc1nc([C@@H]2CO[C@@H](c3ccc(Cl)cc3)C2)no1 [Example 114, 8-chloro-1-((3-((3R,5R)-5-(4-chlorophenyl)tetrahydrofuran-3-yl)-1,2,4-oxadiazol-5-yl)methyl)-2,7-dimethyl-1,7-dihydro-6H-purin-6-one] | 7.42 | 7.66 | – | –
N#Cc1cnn2ncn(Cc3nc([C@@H]4CO[C@@H](c5ccc(Cl)cc5)C4)no3)c(=O)c12 [Example 115, 3-((3-((3R,5R)-5-(4-chlorophenyl)tetrahydro-furan-3-yl)-1,2,4-oxadiazol-5-yl)methyl)-4-oxo-3,4-dihydro-pyrazolo[5,1-f][1,2,4] triazine-5-carbonitrile] | 7.02 | 7.40 | – | –
Cc1n[nH]c2ncn(Cc3nc([C@@H]4CO[C@@H](c5ccc(Cl)cc5)C4)no3)c(=O)c12 [Example 117, 5-((3-((3R,5R)-5-(4-chlorophenyl)tetrahydro-furan-3-yl)-1,2,4-oxadiazol-5-yl)methyl)-3-methyl-1,5-dihydro-4H-pyrazolo[3,4-d] pyrimidin-4-one] | 7.95 | 8.23 | – | –
O=C1CCc2c(ncn(Cc3nc([C@@H]4CO[C@@H](c5ccc(Cl)cc5)C4)no3)c2=O)N1 [Example 118, 3-((3-((3R,5R)-5-(4-chlorophenyl)tetrahydro-furan-3-yl)-1,2,4-oxadiazol-5-yl)methyl)-5,8-dihydropyrido[2,3-d] pyrimidine-4,7(3H,6H)-dione] | 7.02 | 7.33 | – | –
Cc1cnn2ncn(Cc3nc([C@@H]4CO[C@@H](c5ccc(C#N)cc5)C4)no3)c(=O)c12 [Example 122, 4-((2R,4R)-4-(5-((5-methyl-4-oxopyrazolo[5,1-f][1,2,4]triazin-3(4H)-yl)methyl)-1,2,4-oxadiazol-3-yl)tetrahydrofuran-2-yl)benzonitrile] | 7.12 | 7.41 | – | –
Cn1cnc2nc(N)n(Cc3nc([C@@H]4CO[C@@H](c5ccc(Cl)cc5)C4)no3)c2c1=O [Example 123, 8-amino-7-((3-((3R,5R)-5-(4-chlorophenyl)tetrahydro-furan-3-yl)-1,2,4-oxadiazol-5-yl)methyl)-1-methyl-1,7-dihydro-6H-purin-6-one] | 6.90 | 7.77 | – | –
Nc1nc2ncn(Cc3nc([C@@H]4CO[C@@H](c5ccc(F)cc5)C4)no3)c(=O)c2s1 [Example 126, 2-amino-6-((3-((3R,5R)-5-(4-fluorophenyl)tetrahydrofuran-3-yl)-1,2,4-oxadiazol-5-yl)methyl) thiazolo[4,5-d]pyrimidin-7(6H)-one] | 7.05 | 7.44 | – | –

More lines, in order of rising pIC50 [1], values ahead:

pIC50 [1] | pIC50 [2] | Compound | pIC50 (hTRPA1 IC50 10 min, 10 minutes incubation with compound before cinnamaldehyde (about EC80)) | pIC50 (hTRPA1 IC50 90 min, 90 minutes incubation with compound before cinnamaldehyde (about EC80))
5.57 | 6.35 | CN1CCc2c(ncn(Cc3nc([C@@H]4CO[C@@H](c5ccc(Cl)cc5)C4)no3)c2=O)C1 [Example 88, 3-((3-((3R,5R)-5-(4-chlorophenyl)tetrahydro-furan-3-yl)-1,2,4-oxadiazol-5-yl)methyl)-7-methyl-5,6,7,8-tetrahydropyrido [3,4-d]pyrimidin-4(3H)-one] | – | –
6.84 | 7.17 | Cc1cnc(N)n(Cc2nc([C@@H]3CO[C@@H](c4ccc(Cl)cc4)C3)no2)c1=O [Example 128, 2-amino-3-((3-((3R,5R)-5-(4-chlorophenyl)tetra-hydrofuran-3-yl)-1,2,4-oxadiazol-5-yl)methyl)-5-methylpyrimidin-4(3H)-one] | – | –
6.95 | 7.31 | Cn1nncc1C(=O)NCc1nc([C@@H]2CO[C@@H](c3ccc(Cl)cc3)C2)no1 [Example 121, N-((3-((3R,5R)-5-(4-chlorophenyl)tetrahydro-furan-3-yl)-1,2,4-oxadiazol-5-yl)methyl)-1-methyl-1H-1,2,3-triazole-5-carboxamide] | – | –
7.07 | 7.47 | Cc1nc2[nH]c(=O)n(C)c2c(=O)n1Cc1nc([C@@H]2CO[C@@H](c3ccc(Cl)cc3)C2)no1 [Example 111, 1-((3-((3R,5R)-5-(4-chlorophenyl)tetrahydro-furan-3-yl)-1,2,4-oxadiazol-5-yl)methyl)-2,7-dimethyl-7,9-dihydro-1H-purine-6,8-dione] | – | –
7.07 | 7.21 | Cc1nc2nc(C)n(C)c2c(=O)n1Cc1nc([C@@H]2CO[C@@H](c3ccc(Cl)cc3)C2)no1 [Example 109, 1-((3-((3R,5R)-5-(4-chlorophenyl)tetrahydro-furan-3-yl)-1,2,4-oxadiazol-5-yl)methyl)-2,7,8-trimethyl-1,7-dihydro-6H-purin-6-one] | – | –
7.08 | 7.82 | Nc1nc(=O)c2cccnc2n1Cc1nc([C@@H]2CO[C@@H](c3ccc(F)cc3)C2)no1 [Example 130, 2-amino-1-((3-((3R,5R)-5-(4-fluorophenyl)tetra-hydrofuran-3-yl)-1,2,4-oxadiazol-5-yl)methyl) pyrido[2,3-d]pyrimidin-4(1H)-one] | – | –
7.12 | 7.41 | Cn1cnc2c(C(N)=O)nn(Cc3nc([C@@H]4CO[C@@H](c5ccc(Cl)cc5)C4)no3)c(=O)c21 [Example 116, 6-((3-((3R,5R)-5-(4-chlorophenyl)tetrahydro-furan-3-yl)-1,2,4-oxadiazol-5-yl)methyl)-1-methyl-7-oxo-6,7-dihydro-1H-imidazo [4,5-d]pyridazine-4-carboxamide] | – | –
7.14 | 7.05 | O=c1c2ccnnc2ncn1Cc1nc([C@@H]2CO[C@@H](c3ccc(F)cc3)C2)no1 [Example 103, 6-[[3-[(3R,5R)-5-(4-fluorophenyl)tetrahydro-furan-3-yl]-1,2,4-oxadiazol-5-yl]methyl]pyrimido[4,5-c]pyridazin-5-one] | – | –
7.39 | 8.51 | Cn1cnc2nc(N)n(Cc3nc([C@@H]4CO[C@@H](c5cccc(F)c5)C4)no3)c(=O)c21 [Example 125, 2-amino-1-((3-((3R,5R)-5-(3-fluorophenyl)tetrahydrofuran-3-yl)-1,2,4-oxadiazol-5-yl)methyl)-7-methyl-1,7-dihydro-6H-purin-6-one] | – | –
7.50 | 7.89 | Nc1nc2ncccc2c(=O)n1Cc1nc([C@@H]2CO[C@@H](c3cccc(F)c3)C2)no1 [Example 119, 2-amino-3-((3-((3R,5R)-5-(3-fluorophenyl)tetrahydro-furan-3-yl)-1,2,4-oxadiazol-5-yl)methyl) pyrido[2,3-d]pyrimidin-4(3H)-one] | – | –
7.53 | 7.70 | Cn1cnc2nc(Cl)n(Cc3nc([C@@H]4CO[C@@H](c5ccc(Cl)cc5)C4)no3)c(=O)c21 [Example 120, 2-chloro-1-((3-((3R,5R)-5-(4-chlorophenyl)tetrahydro-furan-3-yl)-1,2,4-oxadiazol-5-yl)methyl)-7-methyl-1,7-dihydro-6H-purin-6-one] | – | –
7.75 | 8.54 | Cc1cnn2nc(N)n(Cc3nc([C@@H]4CO[C@@H](c5cccc(F)c5)C4)no3)c(=O)c12 [Example 127, 2-amino-3-((3-((3R,5R)-5-(3-fluorophenyl)tetrahydro-3-yl)-1,2,4-oxadiazol-5-yl)methyl)-5-methylpyrazolo[5,1-f] [1,2,4]triazin-4(3H)-one] | – | –
7.82 | 8.25 | Nc1nc2ncn(Cc3nc([C@@H]4CO[C@@H](c5ccc(Cl)cc5)C4)no3)c(=O)c2s1 [Example 129, 2-amino-6-((3-((3R,5R)-5-(4-chlorophenyl)tetrahydrofuran-3-yl)-1,2,4-oxadiazol-5-yl)methyl)thiazolo[4,5-d] pyrimidin-7(6H)-one] | – | –
7.90 | 7.80 | O=c1ccc2c(=O)n(Cc3nc([C@@H]4CO[C@@H](c5ccc(Cl)cc5)C4)no3)cnc2[nH]1 [Example 124, 3-((3-((3R,5R)-5-(4-chlorophenyl)tetrahydro-furan-3-yl)-1,2,4-oxadiazol-5-yl)methyl) pyrido[2,3-d]pyrimidine-4,7(3H,8H)-dione] | – | –
7.97 | 8.42 | Nc1nc2nccnc2n1Cc1nc([C@@H]2CO[C@@H](c3ccc(Cl)cc3)C2)no1 [Example 112, 1-((3-((3R,5R)-5-(4-chlorophenyl)tetrahydro-furan-3-yl)-1,2,4-oxadiazol-5-yl)methyl)-1H-imidazo[4,5-b] pyrazin-2-amine] | – | –
7.98 | 8.46 | Nc1ccc2c(=O)n(Cc3nc([C@@H]4CO[C@@H](c5ccc(Cl)cc5)C4)no3)ncc2n1 [Example 87, 2-amino-6-((3-((3R,5R)-5-(4-chlorophenyl)tetra-hydrofuran-3-yl)-1,2,4-oxadiazol-5-yl)methyl) pyrido[2,3-d]pyridazin-5(6H)-one] | – | –
